The values below come from US20200231607A1, “TRISUBSTITUTEDSILYLHETEROARYLOXYQUINOLINES AND ANALOGUES” (Bayer Aktiengesellschaft, priority 2017, published 2020).

As usually defined, the logP is the decadic logarithm of the partition coefficient of the neutral form, usually between octanol and water. Higher therefore signals a more lipophilic compound. Broadly, the chromatographic logP is lipophilicity estimated from chromatographic retention. What is called inhibition is the relative decrease from the control value, in per cent.

For data set [1] the following is noted: HPLC, reversed-phase C 18, 40° C., 0.1% aqueous formic acid and acetonitrile, gradient 10% to 95% acetonitrile.
Method: temperature: 40° C.; mobile phases: 0.1% aqueous formic acid and acetonitrile; linear gradient from 10% acetonitrile to 95% acetonitrile;
Calibration was carried out using unbranched alkan-2-ones (comprising 3 to 16 carbon atoms) with known log P values (determination of the log P values by the retention times using linear interpolation between two successive alkanones). lambda-max-values were determined using UV-spectra from 200 nm to 400 nm and the peak values of the chromatographic signals.
The test system of data set [2] is Colletotrichum lindemuthianum. Description: In vitro cell test on Colletotrichum lindemuthianum. In kind it is cell-based. The settings on record: 144 h, 20 ppm of active ingredient, 6 days incubation, liquid culture, spectrometric measurement of mycelium growth, read-out: efficacy (inhibition of fungal growth). How it is done:
(§1) Solvent: dimethyl sulfoxide Culture medium: 14.6 g anhydrous D-glucose (VWR), • 7.1 g mycological peptone (Oxoid), • 1.4 g granulated yeast extract (Merck), QSP 1 liter Inoculum: spore suspension The tested compounds were solubilized in dimethyl sulfoxide and the solution used to prepare the required range of concentrations. […] A spore suspension of Colletotrichum lindemuthianum was prepared and diluted to the desired spore density. The compounds were evaluated for their ability to inhibit spore germination and mycelium growth in liquid culture assay. The compounds were added in the desired concentration to the culture medium with spores. After 6 days incubation, fungi-toxicity of compounds was determined by spectrometric measurement of mycelium growth. Inhibition of fungal growth was determined by comparing the absorbance values in wells containing the tested compound with the absorbance in control wells without the tested compound.

The subject of the next data set is Pyricularia oryzae. Description: microbe, parasite or virus in culture. Format: cell-based. The settings on record: 120 h, read-out: efficacy (inhibition of fungal growth).
A further data set has as its system Leptnosphaeria nodorum. Description: In vitro cell test on Leptnosphaeria nodorum. The settings on record: 120 h; 20 ppm of active ingredient; 5 days incubation; liquid culture, spectrometric measurement of mycelium growth; read-out: efficacy (inhibition of fungal growth). Format: cell-based. How it is done: as §1, with “of Leptnosphaeria nodorum” for “of Colletotrichum lindemuthianum”, “After 5” for “After 6”

As for `Fc1nccc(Oc2cnc3ccccc3c2)c1Br` [IIb.01, 3-[(3-bromo-2-fluoropyridin-4-yl)oxy]quinoline], in data set [1], the lipophilicity (logP) is recorded as 2.92 and the chromatographic logP amounted to 2.96.
Regarding `Fc1cccc2cc(Nc3cccnc3Cl)cnc12` [IIa.04, N-(2-chloropyridin-3-yl)-8-fluoroquinolin-3-amine], in data set [1], the chromatographic logP came to 2.14.
With `Cc1nc2ccccc2nc1Oc1ccncc1[Si](C)(C)C` [I.23], the logP in data set [1] turned out to be 2.49.
In data set [1], `Cc1nc2c(F)c(F)ccc2cc1Nc1ncc(Cl)cc1Br` [IId.02, N-(3-bromo-5-chloropyridin-2-yl)-7,8-difluoro-2-methylquinolin-3-amine] returned a chromatographic logP of 4.36.
In data set [1], `C[Si](C)(c1ccccc1)c1sccc1Cn1cnc2ccccc21` [I.26] showed a logP of 2.49.
Turning to `Fc1ccc2nc(Oc3cccnc3Br)cnc2c1F` [IIa.03, 2-[(2-bromopyridin-3-yl)oxy]-5,6-difluoroquinoxaline], in data set [1], the chromatographic logP stood at 2.96.
In data set [1], `Cc1nc2c(F)c(F)ccc2cc1Oc1sccc1Br` [IIf.01, 3-[(3-bromo-2-thienyl)oxy]-7,8-difluoro-2-methylquinoline] showed a chromatographic logP of 4.23.
Turning to `Cc1nc2c(F)c(F)ccc2nc1Oc1cc(Cl)ncc1Br` [IIb.02, 2-[(5-bromo-2-chloropyridin-4-yl)oxy]-5,6-difluoro-3-methylquinoxaline], the chromatographic logP in data set [1] is 4.2.
`Clc1nccc(Nc2cnc3ccccc3c2)c1Br` [IIb.04, N-(3-bromo-2-chloropyridin-4-yl)quinolin-3-amine] returned a chromatographic logP in data set [1] of 2.35.
In data set [1], `Fc1ccc2nc(Oc3ccncc3Br)cnc2c1F` [IIb.03, 2-[(3-bromopyridin-4-yl)oxy]-5,6-difluoroquinoxaline] had a chromatographic logP of 1.81.
`Cc1nc2ccccc2cc1Oc1cnccc1Br` [IIc.02, 3-[(4-bromopyridin-3-yl)oxy]-2-methylquinoline] gave a chromatographic logP in data set [1] of 2.44.
In the case of `COc1nccc(Oc2cc3ccc(F)c(F)c3nc2C)c1Br` [IIb.05, 3-[(3-bromo-2-methoxypyridin-4-yl)oxy]-7,8-difluoro-2-methylquinoline], the chromatographic logP in data set [1] amounted to 3.85.
Molecule `Fc1nccc(Oc2cnc3c(F)cccc3c2)c1Br` [IIb.06, 3-[(3-bromo-2-fluoropyridin-4-yl)oxy]-8-fluoroquinoline] registered a chromatographic logP in data set [1] of 2.98.
In data set [1], `Cc1nc2c(F)c(F)ccc2nc1Oc1ncc(Cl)cc1Br` [IId.01, 2-[(3-bromo-5-chloropyridin-2-yl)oxy]-5,6-difluoro-3-methylquinoxaline] showed a chromatographic logP of 4.72.
Molecule `C[Si](C)(C)c1sccc1Cn1cnc2ccccc21` [I.25] returned a logP in data set [1] of 2.08.
Take `Fc1cc(Oc2cnc3ccccc3c2)ccn1` [VIIa.03, 3-[(2-fluoropyridin-4-yl)oxy]quinoline]: the chromatographic logP in data set [1] amounted to 2.25.
Take `Cc1nc2ccccc2n1Cc1sccc1[Si](C)(C)C` [I.24, 2-methyl-1-{[3-(trimethylsilyl)-2-thienyl]methyl}-1H-benzimidazole]: the inhibition at 20 ppm (in data set [2]; in the data set on Pyricularia oryzae; with Leptnosphaeria nodorum) was 90 to 100% in each case. Also, the chromatographic logP in data set [1] was 2.13.
In data set [1], `Fc1nccc(Nc2cnc3ccccc3c2)c1Br` [IIb.08, N-(3-bromo-2-fluoropyridin-4-yl)quinolin-3-amine] displayed a chromatographic logP of 2.25.
Turning to `Cc1nc2c(F)c(F)ccc2nc1Oc1cnccc1Br` [IIc.03, 2-[(4-bromopyridin-3-yl)oxy]-5,6-difluoro-3-methylquinoxaline], the chromatographic logP in data set [1] stood at 3.19.
Molecule `Cc1nc2ccccc2cc1Oc1ccnc(F)c1` [VIIa.02, 3-[(2-fluoropyridin-4-yl)oxy]-2-methylquinoline] yielded a chromatographic logP in data set [1] of 2.17.
For the molecule `Cc1nc2c(F)c(F)ccc2nc1Oc1cc(Cl)cnc1Br` [IIa.02, 2-[(2-bromo-5-chloropyridin-3-yl)oxy]-5,6-difluoro-3-methylquinoxaline], in data set [1], the chromatographic logP was 4.3.
Take `C[Si](C)(C)c1cnccc1Oc1cnc2ccccc2n1` [I.01]: in data set [1], the logP was found to be 2.64.
In turn, `Cc1nc2c(F)c(F)ccc2nc1Oc1cncc(Cl)c1Br` [IIc.01, 2-[(4-bromo-5-chloropyridin-3-yl)oxy]-5,6-difluoro-3-methylquinoxaline] showed a chromatographic logP in data set [1] of 4.06.
In data set [1], `Cc1nc2c(F)c(F)ccc2nc1Oc1ccncc1[Si](C)(C)C` [I.18] showed a logP of 2.80.
As to `Cc1nc2c(F)c(F)ccc2cc1Cc1sccc1[Si](C)(C)C` [I.28, 7,8-difluoro-2-methyl-3-{[3-(trimethylsilyl)-2-thienyl]methyl}-quinoline], the chromatographic logP in data set [1] was determined as 5.25.
Same read-out and setting: the value for `Clc1ncnc(Oc2cnc3ccccc3c2)c1Br` [IIe.01, 3-[(5-bromo-6-chloropyrimidin-4-yl)oxy]quinoline] was 3.09.
`C[Si](C)(C)c1c(Oc2cnc3ccccc3c2)ccnc1F` [I.03, 3-{[2-fluoro-3-(trimethylsilyl)pyridin-4-yl]oxy}quinoline]: the inhibition at 20 ppm (in data set [2]; in the data set on Pyricularia oryzae; with Leptnosphaeria nodorum) was 90 to 100% each time. In data set [1], this molecule showed a chromatographic logP of 4.08.
Regarding `Cc1nc2c(F)c(F)ccc2cc1Oc1ccnc(C(F)(F)F)c1Br` [IIb.09, 3-{[3-bromo-2-(trifluoromethyl)pyridin-4-yl]oxy}-7,8-difluoro-2-methylquinoline], the chromatographic logP in data set [1] is 4.01.
In the case of `C[Si](C)(Cc1ccccc1)c1c(Oc2cnc3ccccc3c2)ccnc1F` [I.06, 3-({3-[benzyl(dimethyl)silyl]-2-fluoropyridin-4-yl}oxy)quinoline], the inhibition at 20 ppm in data set [2] lay in the range of 80 to 89%; in the data set with Pyricularia oryzae it was 90 to 100%; in the data set with Leptnosphaeria nodorum, 80 to 89%. The chromatographic logP in data set [1] was 4.78.
The molecule `Cc1nc2c(F)c(F)ccc2nc1Oc1cccnc1Br` [IIa.01, 2-[(2-bromopyridin-3-yl)oxy]-5,6-difluoro-3-methylquinoxaline] gave a chromatographic logP in data set [1] of 3.26.
The same measure, in the same setting: for `Fc1cc(Oc2cnc3ccccc3c2)ncn1` [VIIb.01, 3-[(6-fluoropyrimidin-4-yl)oxy]quinoline] the value was 2.08.
In data set [1], `C[Si](C)(C)c1cnccc1Oc1cnc2ccccc2c1` [I.02] gave a logP of 2.15.
On to `C[Si](C)(C)c1cnccc1Oc1cnc2c(F)cccc2n1` [I.15], for which, in data set [1], the logP turned out to be 2.75.
As to `Cc1nc2c(F)c(F)ccc2nc1Oc1cnccc1[Si](C)(C)C` [I.19], the logP in data set [1] is on record as 3.94.
In the case of `Clc1nccc(Oc2cnc3ccccc3c2)c1Br` [IIb.07, 3-[(3-bromo-2-chloropyridin-4-yl)oxy]quinoline], the chromatographic logP in data set [1] was found to be 2.35.
On the same count and under the same terms, the value for `Clc1cc(Oc2cnc3ccccc3c2)ccn1` [VIIa.01, 3-[(2-chloropyridin-4-yl)oxy]quinoline] was 2.47; that for `Cc1nc2c(F)c(F)ccc2cc1Nc1ccnc(C(F)(F)F)c1Br` [IIb.10, N-[3-bromo-2-(trifluoromethyl)pyridin-4-yl]-7,8-difluoro-2-methylquinolin-3-amine] was 3.37.
